Laboratory results reported in patent US8937180B2, “Method for preparing a polymer conjugate” (Nektar Therapeutics, priority 2006, dated 2015).

Columns and labels:
DU-145 prostate tumors = experiment: Anti-tumor activity in mice implanted with DU-145 prostate tumors; conditions: two doses (q7d×2), FIG. 2
[1] = Maximum tolerated dose in tumor-bearing athymic nude mice; conditions: mouse, in vivo, intravenous

CC(=O)O[C@@]12CO[C@@H]1C[C@H](O)[C@@]1(C)C(=O)[C@H](O)C3=C(C)[C@@H](OC(=O)[C@H](O)[C@@H](NC(=O)OC(C)(C)C)c4ccccc4)C[C@@](O)([C@@H](OC(=O)c4ccccc4)[C@H]21)C3(C)C [docetaxel, Docetaxel]
anti-tumor effect on tumor growth (DU-145 prostate tumors; 3 doses tested, 78 day observation period): good activity
time after which tumors recover and grow (DU-145 prostate tumors): 30 to 50 days
MTD at 78 day ([1]; athymic nude, mice with DU-145 prostate tumors): ≤ 30 mg/kg
MTD ([1]; athymic nude mice, H460 NSCLC tumors, 2nd study): ≤ 30 mg/kg
